Where a name gives a salt, the structure may show the parent alone. A value given as a limit tells only on which side of the number the result lay.

Experiment [1] deals with PI3Kδ (p110δ/p85α) (Homo sapiens (Human), UniProt O00329). Briefly: PI3Kδ Scintillation Proximity Assay (Example A3). The class given is biochemical. From the text:
Example A3: PI3Kδ Scintillation Proximity Assay
[γ-^33P]ATP (10 mCi/mL) was purchased from Perkin-Elmer (Waltham, Mass.). Lipid kinase substrate, D-myo-Phosphatidylinositol 4,5-bisphosphate (PtdIns(4,5)P2)D (+)-sn-1,2-di-O-octanoylglyceryl, 3-O-phospho linked (PIP2), CAS 204858-53-7, was purchased from Echelon Biosciences (Salt Lake City, Utah). PI3Kδ (p110δ/p85α) was purchased from Millipore (Bedford, Mass.). ATP, MgCl2, DTT, EDTA, MOPS and CHAPS were purchased from Sigma-Aldrich (St. Louis, Mo.). Wheat Germ Agglutinin (WGA) YSi SPA Scintillation Beads was purchased from GE healthcare life sciences (Piscataway, N.J.).
The kinase reaction was conducted in polystyrene 384-well matrix white plate from Thermo Fisher Scientific in a final volume of 25 μL. Inhibitors were first diluted serially in DMSO and added to the plate wells before the addition of other reaction components. The final concentration of DMSO in the assay was 0.5%. The PI3K assays were carried out at room temperature in 20 mM MOPS, pH 6.7, 10 mM MgCl2, 5 mM DTT and CHAPS 0.03%. Reactions were initiated by the addition of ATP, the final reaction mixture consisted of 20 µM PIP2, 20 µM ATP, 0.2 μCi [γ-^33P]ATP, 4 nM PI3Kδ. Reactions were incubated for 210 min and terminated by the addition of 40 μL SPA beads suspended in quench buffer: 150 mM potassium phosphate pH 8.0, 20% glycerol. 25 mM EDTA, 400 µM ATP. The final concentration of SPA beads was 1.0 mg/mL. After the plate sealing, plates were shaken overnight at room temperature and centrifuged at 1800 rpm for 10 minutes, the radioactivity of the product was determined by scintillation counting on Topcount (Perkin-Elmer). IC50 determination was performed by fitting the curve of percent control activity versus the log of the inhibitor concentration using the GraphPad Prism 3.0 software. […] IC50 data for Examples 1-25 is presented in Table 3 for PI3Kδ as determined by the assay of Example A2 or A3 as indicated

Experiment [2] addresses PI3Kδ (Homo sapiens (Human), UniProt O00329). Briefly: PI3K Enzyme Assay (Example A2), [γ-33P]ATP filter plate. The class given is biochemical. The method, boiled down: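 Recombinant PI3Kδ at 2.9 nM with 50 µM PIP2 in MOPS pH 6.7, MgCl2, DTT, CHAPS, 0.5% DMSO; started with 1000 μM ATP including [γ-33P]ATP, 180 min at room temperature. Phosphorylated product captured on PVDF filter plates and scintillation-counted; IC50 from percent-control activity vs log concentration.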

PI3Kδ (p110δ/p85α), sequence (O00329 whole entry): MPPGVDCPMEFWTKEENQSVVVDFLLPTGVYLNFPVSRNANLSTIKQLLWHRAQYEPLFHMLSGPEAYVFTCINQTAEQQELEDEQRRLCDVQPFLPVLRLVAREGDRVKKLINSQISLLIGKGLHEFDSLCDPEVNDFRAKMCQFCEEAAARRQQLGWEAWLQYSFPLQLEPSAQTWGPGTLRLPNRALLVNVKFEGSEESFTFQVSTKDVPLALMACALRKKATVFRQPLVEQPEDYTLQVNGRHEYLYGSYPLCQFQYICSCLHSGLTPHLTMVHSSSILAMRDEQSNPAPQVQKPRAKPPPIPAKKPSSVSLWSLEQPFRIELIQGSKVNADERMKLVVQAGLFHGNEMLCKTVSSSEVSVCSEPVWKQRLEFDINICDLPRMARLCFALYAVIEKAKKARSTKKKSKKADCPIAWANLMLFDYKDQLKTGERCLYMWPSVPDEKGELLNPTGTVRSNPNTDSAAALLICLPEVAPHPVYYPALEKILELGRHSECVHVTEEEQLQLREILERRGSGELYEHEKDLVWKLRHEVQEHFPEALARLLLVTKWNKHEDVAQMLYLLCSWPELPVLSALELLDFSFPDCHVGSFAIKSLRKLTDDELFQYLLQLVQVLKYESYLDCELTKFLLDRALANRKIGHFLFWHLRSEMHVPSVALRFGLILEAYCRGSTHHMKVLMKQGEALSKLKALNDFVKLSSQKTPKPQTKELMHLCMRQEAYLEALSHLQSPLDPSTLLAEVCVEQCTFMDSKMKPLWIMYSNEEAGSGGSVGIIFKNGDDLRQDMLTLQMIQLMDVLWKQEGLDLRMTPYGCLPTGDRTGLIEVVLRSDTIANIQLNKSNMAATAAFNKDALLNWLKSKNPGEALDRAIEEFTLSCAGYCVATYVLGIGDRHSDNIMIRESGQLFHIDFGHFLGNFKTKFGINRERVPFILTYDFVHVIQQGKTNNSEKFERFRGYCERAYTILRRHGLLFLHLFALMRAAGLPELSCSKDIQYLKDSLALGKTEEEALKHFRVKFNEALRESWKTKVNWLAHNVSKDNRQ
PI3Kδ (p110δ/p85α), sequence (P27986 whole entry partner): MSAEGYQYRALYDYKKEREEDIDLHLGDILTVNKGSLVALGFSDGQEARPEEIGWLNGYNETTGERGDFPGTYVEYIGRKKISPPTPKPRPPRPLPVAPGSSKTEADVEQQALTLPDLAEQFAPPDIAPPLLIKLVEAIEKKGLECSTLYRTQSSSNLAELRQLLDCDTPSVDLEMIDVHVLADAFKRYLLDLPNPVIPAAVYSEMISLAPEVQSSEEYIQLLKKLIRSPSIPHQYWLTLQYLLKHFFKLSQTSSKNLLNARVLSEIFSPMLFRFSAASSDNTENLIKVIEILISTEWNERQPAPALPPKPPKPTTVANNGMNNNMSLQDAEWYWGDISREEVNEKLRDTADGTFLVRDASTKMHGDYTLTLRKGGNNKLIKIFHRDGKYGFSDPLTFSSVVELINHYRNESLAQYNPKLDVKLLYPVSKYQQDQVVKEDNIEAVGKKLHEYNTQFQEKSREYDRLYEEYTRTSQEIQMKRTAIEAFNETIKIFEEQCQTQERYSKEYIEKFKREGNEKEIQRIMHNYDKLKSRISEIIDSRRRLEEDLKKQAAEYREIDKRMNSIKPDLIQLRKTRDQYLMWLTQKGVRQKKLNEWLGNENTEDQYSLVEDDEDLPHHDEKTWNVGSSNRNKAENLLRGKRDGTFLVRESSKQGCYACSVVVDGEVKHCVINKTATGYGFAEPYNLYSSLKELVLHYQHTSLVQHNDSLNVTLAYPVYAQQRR
PI3Kδ, sequence (O00329 whole entry): as the sequence (O00329 whole entry) above
PI3Kδ, sequence (P27986 whole entry partner): as the sequence (P27986 whole entry partner) above

For `CC(=O)N1CC(N2CCOc3c(C(C)n4nc(C)c5c(N)ncnc54)cc(Cl)c(C)c3C2)C1` (stereo not drawn) [Example 4, 1-{1-[4-(1-Acetylazetidin-3-yl)-7-chloro-6-methyl-2,3,4,5-tetrahydro-1,4-benzoxazepin-9-yl]ethyl}-3-methyl-1H-pyrazolo[3,4-d]pyrimidin-4-amine], the IC50 – broadly, the point on the concentration scale where inhibition reaches its midpoint – in experiment [1] was at most 100 nM.

Take `Cc1c(Cl)cc(C(C)n2nc(C)c3c(N)ncnc32)c2c1CN(C)CCO2` (stereo not drawn) [Example 9, 1-[1-(7-Chloro-4,6-dimethyl-2,3,4,5-tetrahydro-1,4-benzoxazepin-9-yl)ethyl]-3-methyl-1H-pyrazolo[3,4-d]pyrimidin-4-amine bis(trifluoroacetate)]: in experiment [1], the half-inhibitory concentration (IC50) was at most 100 nM.

As for `Cc1c(Cl)cc(C(C)n2nc(C)c3c(N)ncnc32)c2c1CN(C(=O)CC#N)CCO2` (stereo not drawn) [Example 12, 3-[9-[1-(4-Amino-3-methyl-1H-pyrazolo[3,4-d]pyrimidin-1-yl)ethyl]-7-chloro-6-methyl-2,3-dihydro-1,4-benzoxazepin-4(5H)-yl]-3-oxopropanenitrile trifluoroacetate], in experiment [1], the 50% inhibitory concentration (IC50) was at most 100 nM.

On to `COC1CCC(N2CCOc3c(C(C)n4nc(C)c5c(N)ncnc54)cc(Cl)c(C)c3C2)CC1` (stereo not drawn) [Example 8, 1-{1-[7-Chloro-4-(4-methoxycyclohexyl)-6-methyl-2,3,4,5-tetrahydro-1,4-benzoxazepin-9-yl]ethyl}-3-methyl-1H-pyrazolo[3,4-d]pyrimidin-4-amine bis(trifluoroacetate)], for which the 50% inhibitory concentration (IC50) in experiment [1] is at most 100 nM.

For `Cc1c(Cl)cc(C(C)n2nc(C)c3c(N)ncnc32)c2c1C(=O)NCCO2` (stereo not drawn) [Example 25, 9-[1-(4-Amino-3-methyl-1H-pyrazolo[3,4-d]pyrimidin-1-yl)ethyl]-7-chloro-6-methyl-3,4-dihydro-1,4-benzoxazepin-5(2H)-one trifluoroacetate], the 50% inhibitory concentration (IC50) in experiment [1] is at most 100 nM.

Consider `COCC(=O)N1CCOc2c(C(C)n3nc(C)c4c(N)ncnc43)cc(Cl)c(C)c2C1` (stereo not drawn) [Example 21, 1-{1-[7-Chloro-4-(methoxyacetyl)-6-methyl-2,3,4,5-tetrahydro-1,4-benzoxazepin-9-yl]ethyl}-3-methyl-1H-pyrazolo[3,4-d]pyrimidin-4-amine trifluoroacetate], for which the concentration for half-maximal inhibition (IC50) in experiment [1] was at most 100 nM.

`Cc1c(Cl)cc(C(C)n2nc(C)c3c(N)ncnc32)c2c1CN(C1CCCCC1)CCO2` (stereo not drawn) [Example 7, 1-[1-(7-Chloro-4-cyclohexyl-6-methyl-2,3,4,5-tetrahydro-1,4-benzoxazepin-9-yl)ethyl]-3-methyl-1H-pyrazolo[3,4-d]pyrimidin-4-amine bis(trifluoroacetate)]: the half-inhibitory concentration (IC50) in experiment [1] was at most 100 nM.

Consider `Cc1c(Cl)cc(C(C)n2nc(C)c3c(N)ncnc32)c2c1CN(c1cnccn1)CCO2` (stereo not drawn) [Example 24, 1-[1-(7-Chloro-6-methyl-4-pyrazin-2-yl-2,3,4,5-tetrahydro-1,4-benzoxazepin-9-yl)ethyl]-3-methyl-1H-pyrazolo[3,4-d]pyrimidin-4-amine bis(trifluoroacetate)], for which the half-maximal inhibitory concentration (IC50) in experiment [1] was at most 100 nM.

The compound `Cc1c(Cl)cc(C(C)n2nc(C)c3c(N)ncnc32)c2c1CN(C(=O)OC(C)(C)C)CCO2` (stereo not drawn) [Example 1, tert-Butyl 9-[1-(4-amino-3-methyl-1H-pyrazolo[3,4-d]pyrimidin-1-yl)ethyl]-7-chloro-6-methyl-2,3-dihydro-1,4-benzoxazepine-4(5H)-carboxylate] came in with an IC50 in experiment [1] of 100 to 500 nM.

In experiment [1], `Cc1c(Cl)cc(C(C)n2nc(C)c3c(N)ncnc32)c2c1CN(C1CCCC1)CCO2` (stereo not drawn) [Example 6, 1-[1-(7-Chloro-4-cyclopentyl-6-methyl-2,3,4,5-tetrahydro-1,4-benzoxazepin-9-yl)ethyl]-3-methyl-1H-pyrazolo[3,4-d]pyrimidin-4-amine bis(trifluoroacetate)] yielded an IC50 of at most 100 nM.

`Cc1c(Cl)cc(C(C)n2nc(C)c3c(N)ncnc32)c2c1CNCCO2` (stereo not drawn) [Example 2, 1-[1-(7-Chloro-6-methyl-2,3,4,5-tetrahydro-1,4-benzoxazepin-9-yl)ethyl]-3-methyl-1H-pyrazolo[3,4-d]pyrimidin-4-amine bis(trifluoroacetate)] gave an IC50 in experiment [1] of at most 100 nM.

`Cc1ccccc1NC(=O)N1CCOc2c(C(C)n3nc(C)c4c(N)ncnc43)cc(Cl)c(C)c2C1` (stereo not drawn) [Example 15, 9-[1-(4-Amino-3-methyl-1H-pyrazolo[3,4-d]pyrimidin-1-yl)ethyl]-7-chloro-6-methyl-N-(2-methylphenyl)-2,3-dihydro-1,4-benzoxazepine-4(5H)-carboxamide trifluoroacetate] yielded a 50% inhibitory concentration (IC50) in experiment [1] of at most 100 nM.

`Cc1c(Cl)cc(C(C)n2nc(C)c3c(N)ncnc32)c2c1CN(C(C)C)CCO2` (stereo not drawn) [Example 10, 1-[1-(7-Chloro-4-isopropyl-6-methyl-2,3,4,5-tetrahydro-1,4-benzoxazepin-9-yl)ethyl]-3-methyl-1H-pyrazolo[3,4-d]pyrimidin-4-amine bis(trifluoroacetate)] displayed an IC50 in experiment [1] of at most 100 nM.

Take `CC(=O)N1CC(N2Cc3c(F)c(Cl)cc(C(C)n4nc(C)c5c(N)ncnc54)c3OC(C)C2)C1` (single isomer, unassigned) [Example 31, 1-{1-[4-(1-Acetylazetidin-3-yl)-7-chloro-6-fluoro-2-methyl-2,3,4,5-tetrahydro-1,4-benzoxazepin-9-yl]ethyl}-3-methyl-1H-pyrazolo[3,4-d]pyrimidin-4-amine]: in experiment [2], the IC50 was over 800 nM.

With `Cc1nn(C(C)c2cc(Cl)c(C#N)c3c2OCCN(C2CN(S(C)(=O)=O)C2)C3)c2ncnc(N)c12` (stereo not drawn) [Example 90, 9-[1-(4-amino-3-methyl-1H-pyrazolo[3,4-d]pyrimidin-1-yl)ethyl]-7-chloro-4-[1-(methylsulfonyl)azetidin-3-yl]-2,3,4,5-tetrahydro-1,4-benzoxazepine-6-carbonitrile], the IC50 in experiment [2] is at most 100 nM.

With `Cc1nn(C(C)c2cc(Cl)c(C#N)c3c2O[C@@H](C)CN(C2CN(CCO)C2)C3)c2ncnc(N)c12` (stereo partly drawn) [Example 56, (2S)-9-[1-(4-Amino-3-methyl-1H-pyrazolo[3,4-d]pyrimidin-1-yl)ethyl]-7-chloro-4-[1-(2-hydroxyethyl)azetidin-3-yl]-2-methyl-2,3,4,5-tetrahydro-1,4-benzoxazepine-6-carbonitrile], the IC50 in experiment [2] was at most 100 nM.

In turn, `Cc1nn(C(C)c2cc(Cl)c(C#N)c3c2OC(C)CN(CC#N)C3)c2ncnc(N)c12` (single isomer, unassigned) [Example 107, 9-[1-(4-amino-3-methyl-1H-pyrazolo[3,4-d]pyrimidin-1-yl)ethyl]-7-chloro-4-(cyanomethyl)-2-methyl-2,3,4,5-tetrahydro-1,4-benzoxazepine-6-carbonitrile] came in with a 50% inhibitory concentration (IC50) in experiment [2] of at most 100 nM.

As to `Cc1nn(C(C)c2cc(Cl)c(C#N)c3c2OC(C)CN(CCO)C3)c2ncnc(N)c12` (single isomer, unassigned) [Example 64, 9-[1-(4-Amino-3-methyl-1H-pyrazolo[3,4-d]pyrimidin-1-yl)ethyl]-7-chloro-4-(2-hydroxyethyl)-2-methyl-2,3,4,5-tetrahydro-1,4-benzoxazepine-6-carbonitrile], in experiment [2], the IC50 fell in the range of 100 to 500 nM.

In turn, `CNC(=O)C1CC(N2Cc3c(C#N)c(Cl)cc(C(C)n4nc(C)c5c(N)ncnc54)c3OC(C)C2)C1` (single isomer, unassigned) [Example 115, 3-[9-[1-(4-amino-3-methyl-1H-pyrazolo[3,4-d]pyrimidin-1-yl)ethyl]-7-chloro-6-cyano-2-methyl-2,3-dihydro-1,4-benzoxazepin-4(5H)-yl]-N-methylcyclobutanecarboxamide] displayed an IC50 in experiment [2] of at most 100 nM.

On to `Cc1nn(C(C)c2cc(Cl)c(C#N)c3c2OC(C)CN(C2CN(S(=O)(=O)N(C)C)C2)C3)c2ncnc(N)c12` (single isomer, unassigned) [Example 105, 3-[9-[1-(4-amino-3-methyl-1H-pyrazolo[3,4-d]pyrimidin-1-yl)ethyl]-7-chloro-6-cyano-2-methyl-2,3-dihydro-1,4-benzoxazepin-4(5H)-yl]-N,N-dimethylazetidine-1-sulfonamide], for which the 50% inhibitory concentration (IC50) in experiment [2] was at most 100 nM.

`CCNC(=O)N1CC(N2Cc3c(C#N)c(Cl)cc(C(C)n4nc(C)c5c(N)ncnc54)c3OC(C)C2)C1` (single isomer, unassigned) [Example 98, 3-[9-[1-(4-amino-3-methyl-1H-pyrazolo[3,4-d]pyrimidin-1-yl)ethyl]-7-chloro-6-cyano-2-methyl-2,3-dihydro-1,4-benzoxazepin-4(5H)-yl]-N-ethylazetidine-1-carboxamide] showed an IC50 in experiment [2] of at most 100 nM.

For the origin of these results see patent US9944646B2, “Bicyclic azaheterocyclobenzylamines as PI3K inhibitors” (Incyte Corporation, priority 2012, dated 2018).
